The values below are quoted from earlier work in article PMC8619046, “ABCB1 and ABCG2 Control Brain Accumulation and Intestinal Disposition of the Novel ROS1/TRK/ALK Inhibitor Repotrectinib, While OATP1A/1B, ABCG2, and CYP3A Limit Its Oral Availability” (Pharmaceutics, 2021).

For the data set the following is noted: cited from earlier work; for brain-to-plasma ratio: wild-type mice; for fold increase of brain-to-plasma ratio: combined genetic knockout of Abcb1 and Abcg2, mice.

As for `C[C@@H](Oc1cc(-c2cnn(C3CCNCC3)c2)cnc1N)c1c(Cl)ccc(F)c1Cl` [crizotinib], the brain-to-plasma ratio result is “about 0.2”. Further, the “fold enhancement of brain-to-plasma ratio” value (mouse, in vivo) was ~ 15 fold.
As for `C[C@@H]1CCc2ncc(F)cc2[C@H]2CCCN2c2ccn3ncc(c3n2)C(=O)N1` [selitrectinib], the “fold increase of brain-to-plasma ratio” value is on record as 6 fold and the brain-to-plasma ratio is 0.03.
Take `C[C@H]1Oc2cc(cnc2N)-c2c(nn(C)c2C#N)CN(C)C(=O)c2ccc(F)cc21` [lorlatinib]: the “fold increase of brain-to-plasma ratio” value was 4 fold and the brain-to-plasma ratio is 0.4.
